Experimental data published in ChEMBL document CHEMBL1201862, “PubChem BioAssay data set” (2004).
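In this assay, cells in 96-well plates receive the compound at five concentrations for 48 hours. Endpoints are linearly interpolated between the surrounding concentrations. GI50 is the concentration that inhibits growth by half.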 Activity calls are given as the source filed them. No stated cut-off is given here; in the data, active = GI50 up to about 1.1 µM and inactive = higher.

Key:
Assay in all cases: growth of human tumour cells (NCI), 48 h
786-0 = system: 786-0
A498 = system: A498
A549 = system: A549
ACHN = system: ACHN
CAKI-1 = system: CAKI-1
CCRF-CEM = system: CCRF-CEM
COLO 205 = system: COLO 205
DLD-1 = system: DLD-1
DMS-273 = system: DMS-273
EKVX = system: EKVX
HCC 2998 = system: HCC 2998
HCT-116 = system: HCT-116
HCT-15 = system: HCT-15
HL-60 = system: HL-60
HOP-18 = system: HOP-18
HOP-62 = system: HOP-62
HOP-92 = system: HOP-92
HT-29 = system: HT-29
IGROV-1 = system: IGROV-1
K562 = system: K562
KM-20L2 = system: KM-20L2
KM12 = system: KM12
LOX IMVI = system: LOX IMVI
LXFL 529 = system: LXFL 529
M14 = system: M14
MOLT-4 = system: MOLT-4
Malme-3M = system: Malme-3M
NCI-H226 = system: NCI-H226
NCI-H23 = system: NCI-H23
NCI-H460 = system: NCI-H460
NCI-H522 = system: NCI-H522
OVCAR-4 = system: OVCAR-4
OVCAR-5 = system: OVCAR-5
OVCAR-8 = system: OVCAR-8
RPMI-8226 = system: RPMI-8226
RXF 393 = system: RXF 393
RXF 631 = system: RXF 631
SF-268 = system: SF-268
SF-295 = system: SF-295
SF-539 = system: SF-539
SK-MEL-28 = system: SK-MEL-28
SK-MEL-2 = system: SK-MEL-2
SK-MEL-5 = system: SK-MEL-5
SK-OV-3 = system: SK-OV-3
SN12C = system: SN12C
SNB-19 = system: SNB-19
SNB-75 = system: SNB-75
SNB-78 = system: SNB-78
SR = system: SR
SW-620 = system: SW-620
TK-10 = system: TK-10
U-251 = system: U-251
UACC-257 = system: UACC-257
UACC-62 = system: UACC-62
UO-31 = system: UO-31
XF498 = system: XF498
BT-549 = system: BT-549
DMS-114 = system: DMS-114
DU-145 = system: DU-145
Hs-578T = system: Hs-578T
M19-MEL = system: M19-MEL
MCF7 = system: MCF7
MDA-MB-231 = system: MDA-MB-231
MDA-MB-435 = system: MDA-MB-435
MDA-N = system: MDA-N
NCI/ADR-RES = system: NCI/ADR-RES
OVCAR-3 = system: OVCAR-3
PC-3 = system: PC-3
T47D = system: T47D

Cc1ccc2nc(NC(=O)/C(=N\NC(=S)NN)C3C(=O)NC(=S)NC3=O)sc2c1
GI50 (786-0): > 100 µM (inactive)
GI50 (A498): > 100 µM (inactive)
GI50 (A549): > 100 µM (inactive)
GI50 (ACHN): > 100 µM (inactive)
GI50 (CAKI-1): > 100 µM (inactive)
GI50 (CCRF-CEM): > 100 µM (inactive)
GI50 (COLO 205): > 100 µM (inactive)
GI50 (DLD-1): > 100 µM (inactive)
GI50 (DMS-273): > 100 µM (inactive)
GI50 (EKVX): > 100 µM (inactive)
GI50 (HCC 2998): > 100 µM (inactive)
GI50 (HCT-116): > 100 µM (inactive)
GI50 (HCT-15): > 100 µM
GI50 (HL-60): > 100 µM (inactive)
GI50 (HOP-18): 80 µM (inactive)
GI50 (HOP-62): > 100 µM (inactive)
GI50 (HOP-92): > 100 µM (inactive)
GI50 (HT-29): > 100 µM (inactive)
GI50 (IGROV-1): > 100 µM (inactive)
GI50 (K562): > 100 µM (inactive)
GI50 (KM-20L2): > 100 µM (inactive)
GI50 (KM12): > 100 µM (inactive)
GI50 (LOX IMVI): > 100 µM (inactive)
GI50 (LXFL 529): > 100 µM (inactive)
GI50 (M14): > 100 µM (inactive)
GI50 (MOLT-4): > 100 µM (inactive)
GI50 (Malme-3M): > 100 µM (inactive)
GI50 (NCI-H226): > 100 µM (inactive)
GI50 (NCI-H23): > 100 µM (inactive)
GI50 (NCI-H460): > 100 µM (inactive)
GI50 (NCI-H522): > 100 µM (inactive)
GI50 (OVCAR-4): > 100 µM (inactive)
GI50 (OVCAR-5): > 100 µM (inactive)
GI50 (OVCAR-8): > 100 µM (inactive)
GI50 (RPMI-8226): > 100 µM (inactive)
GI50 (RXF 393): > 100 µM (inactive)
GI50 (RXF 631): > 100 µM (inactive)
GI50 (SF-268): > 100 µM (inactive)
GI50 (SF-295): > 100 µM (inactive)
GI50 (SF-539): > 100 µM (inactive)
GI50 (SK-MEL-28): > 100 µM (inactive)
GI50 (SK-MEL-2): > 100 µM (inactive)
GI50 (SK-MEL-5): > 100 µM (inactive)
GI50 (SK-OV-3): > 100 µM (inactive)
GI50 (SN12C): > 100 µM (inactive)
GI50 (SNB-19): > 100 µM (inactive)
GI50 (SNB-75): > 100 µM (inactive)
GI50 (SNB-78): > 100 µM (inactive)
GI50 (SR): > 100 µM (inactive)
GI50 (SW-620): > 100 µM (inactive)
GI50 (TK-10): > 100 µM (inactive)
GI50 (U-251): > 100 µM (inactive)
GI50 (UACC-257): > 100 µM (inactive)
GI50 (UACC-62): > 100 µM (inactive)
GI50 (UO-31): > 100 µM (inactive)
GI50 (XF498): > 100 µM (inactive)

CN1C(=O)CC2(C)c3cc(O)ccc3N(C)C12 (stereo not given)
GI50 (786-0): 15 µM (inactive)
GI50 (A498): 43 µM (inactive)
GI50 (A549): > 68.5 µM (inactive)
GI50 (ACHN): 63.2 µM (inactive)
GI50 (BT-549): 16.9 µM (inactive)
GI50 (CAKI-1): 23.8 µM (inactive)
GI50 (CCRF-CEM): 13.2 µM (inactive)
GI50 (COLO 205): 36.8 µM (inactive)
GI50 (DLD-1): > 89.3 µM (inactive)
GI50 (DMS-114): 38.9 µM (inactive)
GI50 (DMS-273): > 100 µM (inactive)
GI50 (DU-145): > 40.4 µM (inactive)
GI50 (EKVX): 37.8 µM (inactive)
GI50 (HCC 2998): > 100 µM (inactive)
GI50 (HCT-116): 19.9 µM (inactive)
GI50 (HCT-15): 36 µM
GI50 (HL-60): 21.2 µM (inactive)
GI50 (HOP-18): > 100 µM (inactive)
GI50 (HOP-62): 41 µM (inactive)
GI50 (HOP-92): 56.9 µM (inactive)
GI50 (HT-29): 30.5 µM (inactive)
GI50 (Hs-578T): > 48.9 µM (inactive)
GI50 (IGROV-1): 46.6 µM (inactive)
GI50 (K562): 18.5 µM (inactive)
GI50 (KM-20L2): > 100 µM (inactive)
GI50 (KM12): 31.3 µM (inactive)
GI50 (LOX IMVI): 17.1 µM (inactive)
GI50 (LXFL 529): 27.8 µM (inactive)
GI50 (M14): 27.2 µM (inactive)
GI50 (M19-MEL): 11.5 µM (inactive)
GI50 (MCF7): 18.6 µM (inactive)
GI50 (MDA-MB-231): 19.5 µM (inactive)
GI50 (MDA-MB-435): 13.6 µM (inactive)
GI50 (MDA-N): 17.6 µM (inactive)
GI50 (MOLT-4): 19.3 µM (inactive)
GI50 (Malme-3M): 54.5 µM (inactive)
GI50 (NCI-H226): 40.6 µM (inactive)
GI50 (NCI-H23): 42.3 µM (inactive)
GI50 (NCI-H460): 50.9 µM (inactive)
GI50 (NCI-H522): 43.3 µM (inactive)
GI50 (NCI/ADR-RES): 39.4 µM (inactive)
GI50 (OVCAR-3): 19.6 µM (inactive)
GI50 (OVCAR-4): 5.45 µM (inactive)
GI50 (OVCAR-5): 42.5 µM (inactive)
GI50 (OVCAR-8): 30.8 µM (inactive)
GI50 (PC-3): 41.5 µM (inactive)
GI50 (RPMI-8226): 31 µM (inactive)
GI50 (RXF 393): 29.4 µM (inactive)
GI50 (RXF 631): > 100 µM (inactive)
GI50 (SF-268): 27 µM (inactive)
GI50 (SF-295): 29.8 µM (inactive)
GI50 (SF-539): 64.1 µM (inactive)
GI50 (SK-MEL-28): 50.7 µM (inactive)
GI50 (SK-MEL-2): 41.5 µM (inactive)
GI50 (SK-MEL-5): 22.5 µM (inactive)
GI50 (SK-OV-3): > 95.3 µM (inactive)
GI50 (SN12C): 15.5 µM (inactive)
GI50 (SNB-19): 46.9 µM (inactive)
GI50 (SNB-75): 30.8 µM (inactive)
GI50 (SNB-78): > 67.3 µM (inactive)
GI50 (SR): 18.5 µM (inactive)
GI50 (SW-620): 20 µM (inactive)
GI50 (T47D): 31.8 µM (inactive)
GI50 (TK-10): > 90.4 µM (inactive)
GI50 (U-251): 19.2 µM (inactive)
GI50 (UACC-257): > 68.2 µM (inactive)
GI50 (UACC-62): 20.1 µM (inactive)
GI50 (UO-31): > 71.8 µM (inactive)
GI50 (XF498): 17.3 µM (inactive)
